{"source": "patent US20090239834A1", "about": "“MCC-257 MODULATION OF NEUROGENESIS” (BrainCells, Inc., priority 2008, published 2009)", "key": {"male F344 rats [1]": {"test_system": "male F344 rats", "test": "Novelty-suppressed feeding test (NSF), chronic dosing", "assay_type": "in vivo, rat", "details": "vs vehicle, p<0.05 one-tailed Student's t-test, FIG. 2", "procedure": "The white bar represents the vehicle control (DI water; n=10), the black bar represents fluoxetine dosed at 12.5 mg/kg (n=11) and the grey bar represents MCC-257 dosed at 0.3 mg/kg (n=11). Vehicle and compounds were administered orally once daily (q.d.) for 20 days prior to behavioral testing. Behavioral testing was carried out as described in Example 2. […] Values are the mean±SEM.\nThe NSF is a conflict test in which food-deprived animals are presented with a food pellet placed in the center of a brightly-lit open field. This paradigm elicits competing motivations: the drive to eat the food pellet, and the fear of venturing into the center of the arena. The dependent variable in this test is the amount of time it takes for an animal to begin eating the pellet, and this latency has been used as an index of anxiety-like behavior and antidepressant activity because it is decreased by classical anxiolytic drugs such as benzodiazepines (Bodnoff et al. “The effects of chronic antidepressant treatment in an animal model of anxiety.” 1988 Psychopharmacology (Berl) 95(3):298-302; Bodnoff et al. “A comparison of the effects of diazepam versus several typical and atypical anti-depressant drugs in an animal model of anxiety.” 1989 Psychopharmacology (Berl) 97(2):277-9; Shephard and Broadhurst, “Hyponeophagia and arousal in rats: effects of diazepam, 5-methoxy-N,N-dimethyltryptamine, d-amphetamine and food deprivation.” 1982 Psychopharmacology (Berl) 78(4):[…]) as well as antidepressants.\nNSF is performed as described previously by Santarelli, et al. (2003) with some modifications. Briefly, male F344 rats were dosed orally once daily (q.d.) for 20-days with vehicle (DI water; n=10), 12.5 mg/kg fluoxetine (n=11) or 0.3 mg/kg MCC-257 (n=11). Animals were food deprived for 24 hours prior to testing. On day 22, 60 minutes after drug administration, NSF was performed in an open field chamber. A single pellet of rodent chow was placed in the center of the open field. […] Saved videos were subsequently scored by blinded observers and the latency to eat the pellet was recorded."}, "[2]": {"test_system": "neural progenitor cells within the dentate gyrus of the hippocampus", "test": "In vivo neurogenesis, BrdU positive cell counts in the dentate gyrus", "parameters": "species or system rat", "details": "0.3 mg/kg orally q.d., chronic (26 or 28 days as printed); vs vehicle; FIG. 3", "procedure": "The white bar represents vehicle (DI water, n=11) and the grey bar represents MCC-257 dosed at 0.3 mg/kg (n=10). Both vehicle and MCC-257 were dosed orally once daily (q.d.) for 26 days prior to analysis. […] Data are presented as the number of BrdU cells per cubic mm of dentate gyrus. […] Values are the mean±SEM.\nFor the in vivo neurogenesis assays, male F344 rats were dosed orally once daily (q.d.) for 28-days with vehicle (DI water; n=11) or 0.3 mg/kg MCC-257 ([…]). BrdU was administered once daily between days 9 and 14 (100 mg/kg/day, i.p.)."}, "[3]": {"test_system": "human neural stem cells (hNSCs)", "test": "Neuronal differentiation of human neural stem cells (TUJ-1 staining)", "assay_type": "cell-based", "source_text": "FIG. 1 is a dose-response curve showing the effect of MCC-257 on neuronal differentiation of human neural stem cells. Data is presented as the percentage of the neuronal positive control, with basal media values subtracted.\nHuman neural stem cells (hNSCs) were isolated and grown in monolayer culture, plated, treated with varying concentrations of MCC-257, and stained with TUJ-1 antibody for the detection of neuronal differentiation as described in U.S. Patent Publication 2007/0015138 (incorporated by reference). Mitogen-free test media with a positive control for neuronal differentiation was used along with basal media without growth factors as a negative control.\nThe data is presented as a percent of neuronal positive control."}, "male F344 rats [4]": {"test_system": "male F344 rats", "test": "Novel Object Recognition (NOR) cognition assay", "assay_type": "in vivo, rat", "details": "48-hour delay; increasing oral doses q.d., chronic; vs vehicle; FIG. 4", "procedure": "Behavioral testing was carried out as described in Example 2. Data is presented as the mean percentage of visits to a novel object. The white bar represents vehicle (DI water: n=11) and grey bars represent increasing doses of MCC-257 (0.1 mg/kg, n=10; 0.3 mg/kg, n=10; 3.0 mg/kg, n=10). All animals were dosed orally once daily (q.d.) for 29 days prior to testing. […] Values are the mean±SEM.\nNOR was performed as described previously by Broadbent et al., (“Spatial memory, recognition memory, and the hippocampus.” 2004 PNAS 101(40):14511-14520) with some modifications. The apparatus consisted of an open field (45×45×50 cm high) made of polycarbonate. Triplicate copies were used of the objects to be discriminated. Care was taken to ensure that the pair of objects tested were made from the same material so that they could not be distinguished readily by olfactory cues although they had very different appearances. Each test session consisted of two phases. In the initial familiarization phase, two identical objects (A1 and A2) were placed in the far corners of the box arena. A rat was then placed in the middle of the arena and allowed 15 minutes to explore both objects. Exploration of an object was defined as directing the nose to the object at a distance of less than 2 cm and/or touching it with the nose. After a delay of 48-hours the rat was re-introduced to the arena (“test phase”). […]"}}, "note": "“Also recorded” adds a separate entry of the source.", "data": [{"smiles": "CO[C@]1(C(=O)N[C@@H]2CC[C@@]3(C)[C@@H](CC[C@@H]4[C@@H]3CC[C@]3(C)[C@@H]([C@H](C)CCCC(C)C)CC[C@@H]43)C2)C[C@H](O)[C@@H](NC(C)=O)[C@H]([C@H](O)[C@H](O)CO)O1", "note": "[MCC-257, 5-acetamido-N-(5alpha-cholestan-3alpha-yl)-3,5-dideoxy-2-O-methyl-D-glycero-alpha-D-galacto-non-2-ulopyranosonamide]", "values": [{"measurement": "latency to eat a food pellet in a novel environment", "setting": "male F344 rats [1]; 0.3 mg/kg orally q.d. for 20 days", "result": "significantly reduced latency to eat"}, {"measurement": "BrdU positive cells per cubic mm in granule cell layer of dentate gyrus (neurogenesis)", "setting": "[2]", "result": "significant increase; also recorded: significantly increased neurogenesis"}, {"measurement": "EC50", "setting": "[3]; Homo sapiens, Neural stem cell, read-out: EC50 of neuronal differentiation", "result": 90, "unit": "nM"}, {"measurement": "effect on neuronal differentiation", "setting": "[3]; concentration response curve, percent of neuronal positive control, FIG. 1", "result": "promoted neuronal differentiation in a concentration dependent manner"}, {"measurement": "preference for the novel object (percent visits)", "setting": "male F344 rats [4]", "result": "dose dependent increase in preference for the novel object; also recorded: dose-related increase in preference for the novel object"}]}, {"smiles": "CNCCC(Oc1ccc(C(F)(F)F)cc1)c1ccccc1", "note": "(stereo not shown) [fluoxetine, reference compound]", "values": [{"measurement": "latency to eat a food pellet in a novel environment", "setting": "male F344 rats [1]; 12.5 mg/kg orally q.d. for 20 days", "result": "significantly reduced"}, {"measurement": "latency to eat a food pellet in a novel environment", "setting": "male F344 rats [1]; 12.5 mg/kg orally q.d. for 20 days, listed as Fluoxetine", "result": "significantly reduced latency to eat"}]}]}
